Measured values from PubChem BioAssay (NCI).
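Results reflect a 48-hour exposure of cells in 96-well plates to compound at five concentrations. GI50: concentration for 50% inhibition of growth. The concentration for full growth arrest is given as TGI.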

Tests used:
Experiment in all cases: NCI-60 cell line screen, 48 h
RPMI-8226 leukemia = tested on: RPMI-8226 leukemia
786-0 renal = tested on: 786-0 renal
BT-549 breast = tested on: BT-549 breast
NCI-H522 lung = tested on: NCI-H522 lung
MDA-MB-435 = tested on: MDA-MB-435
SR leukemia = tested on: SR leukemia
ACHN renal = tested on: ACHN renal
OVCAR-4 ovarian = tested on: OVCAR-4 ovarian
SNB-19 CNS = tested on: SNB-19 CNS
SW-620 colon = tested on: SW-620 colon
SF-268 CNS = tested on: SF-268 CNS
IGROV1 ovarian = tested on: IGROV1 ovarian
K-562 leukemia = tested on: K-562 leukemia
SK-MEL-5 melanoma = tested on: SK-MEL-5 melanoma
HCC-2998 colon = tested on: HCC-2998 colon
SNB-75 CNS = tested on: SNB-75 CNS
NCI-H460 lung = tested on: NCI-H460 lung
UACC-257 melanoma = tested on: UACC-257 melanoma
OVCAR-5 ovarian = tested on: OVCAR-5 ovarian
HT29 colon = tested on: HT29 colon
MALME-3M melanoma = tested on: MALME-3M melanoma
SF-539 CNS = tested on: SF-539 CNS
M14 melanoma = tested on: M14 melanoma
MDA-MB-231 breast = tested on: MDA-MB-231 breast
SK-OV-3 ovarian = tested on: SK-OV-3 ovarian
SN12C renal = tested on: SN12C renal
CCRF-CEM leukemia = tested on: CCRF-CEM leukemia
RXF 393 renal = tested on: RXF 393 renal

COC(=O)c1cccc(NC2=C(Cl)C(=O)c3nc(C)ccc3C2=O)c1
GI50 (RPMI-8226 leukemia): 2.14 µM | TGI (RPMI-8226 leukemia): 6 µM | GI50 (786-0 renal): 1.86 µM | TGI (786-0 renal): 3.66 µM | GI50 (BT-549 breast): 1.68 µM | TGI (BT-549 breast): 3.09 µM | GI50 (NCI-H522 lung): 1.89 µM | TGI (NCI-H522 lung): 4.46 µM | GI50 (MDA-MB-435): 2.04 µM | TGI (MDA-MB-435): 4.29 µM | GI50 (SR leukemia): 1.83 µM | TGI (SR leukemia): 4.62 µM | GI50 (ACHN renal): 1.78 µM | TGI (ACHN renal): 3.4 µM | GI50 (OVCAR-4 ovarian): 1.42 µM | TGI (OVCAR-4 ovarian): 2.89 µM | GI50 (SNB-19 CNS): 10.8 µM | TGI (SNB-19 CNS): > 100 µM | GI50 (SW-620 colon): 1.97 µM | TGI (SW-620 colon): 4.03 µM | GI50 (SF-268 CNS): 2.76 µM | TGI (SF-268 CNS): 9.59 µM | GI50 (IGROV1 ovarian): 1.98 µM | TGI (IGROV1 ovarian): 3.89 µM | GI50 (K-562 leukemia): 0.976 µM | TGI (K-562 leukemia): 3.94 µM | GI50 (SK-MEL-5 melanoma): 1.8 µM | TGI (SK-MEL-5 melanoma): 3.34 µM | GI50 (HCC-2998 colon): 2.21 µM | TGI (HCC-2998 colon): 4.8 µM | GI50 (SNB-75 CNS): 13.2 µM | TGI (SNB-75 CNS): 26.2 µM | GI50 (NCI-H460 lung): 18.5 µM | TGI (NCI-H460 lung): 41.5 µM | GI50 (UACC-257 melanoma): 1.57 µM | TGI (UACC-257 melanoma): 3 µM | GI50 (OVCAR-5 ovarian): 3.14 µM | TGI (OVCAR-5 ovarian): 14.7 µM | GI50 (HT29 colon): 2.32 µM | TGI (HT29 colon): 6.09 µM | GI50 (MALME-3M melanoma): 1.95 µM | TGI (MALME-3M melanoma): 3.76 µM | GI50 (SF-539 CNS): 1.75 µM | TGI (SF-539 CNS): 3.27 µM | GI50 (M14 melanoma): 1.84 µM | TGI (M14 melanoma): 3.42 µM | GI50 (MDA-MB-231 breast): 2.15 µM | TGI (MDA-MB-231 breast): 5.08 µM | GI50 (SK-OV-3 ovarian): 12.5 µM | TGI (SK-OV-3 ovarian): 25.2 µM | GI50 (SN12C renal): 2.13 µM | TGI (SN12C renal): 5.4 µM | GI50 (CCRF-CEM leukemia): 2.01 µM | TGI (CCRF-CEM leukemia): 5.48 µM | GI50 (RXF 393 renal): 1.57 µM
